≈ marks a conversion by molar mass, not a printed value.
Experiments:
[1] = Hygroscopicity (water absorption versus relative humidity); assay type: physicochemical; conditions: from 40% RH to 70% RH at 25° C.
physchem = conditions: pH 4.5, aqueous buffer, observed aqueous solubility
[2] = Solubility of Compound A crystalline forms in aqueous buffers and biorelevant media; conditions: aqueous buffer, solubility, water, pH 4.5 acetate buffer, pH 6.8 phosphate buffer, pH 5.0 FeSSIF-v1 and pH 6.5 FaSSIF-v1
[3] = Solid form stability (XRPD after storage, conversion in MeOH/water, thermal); assay type: physicochemical
Experimental: X-ray powder diffraction patterns were collected on a Bruker AXS C2 GADDS or Bruker AXS D8 diffractometer.
X-ray Powder Diffraction patterns were collected on a Bruker AXS C2 GADDS diffractometer using Cu Kα radiation (40 kV, 40 mA), automated XYZ stage, laser video microscope for auto-sample positioning, and a HiStar 2-dimensional area detector. X-ray optics consists of a single Göbel multilayer mirror coupled with a pinhole collimator of 0.3 mm. A weekly performance check is carried out using a certified standard NIST 1976 Corundum (flat plate). The beam divergence (i.e., the effective size of the X-ray beam on the sample) was approximately 4 mm. A θ-θ continuous scan mode was employed with a sample—detector distance of 20 cm which gives an effective 2θ range of 3.2°-29.7°. Typically the sample would be exposed to the X-ray beam for 120 seconds. The software used for data collection was GADDS for WNT 4.1.16 and the data were analyzed and presented using Diffrac Plus EVA v11.0.0.2 or v13.0.0.2.
X-ray Powder Diffraction patterns were collected on a Bruker D8 diffractometer using Cu Kα radiation (40 kV, 40 mA), θ-2θ goniometer, and divergence of V4 and receiving slits, a Ge monochromator and a Lynxeye detector. The instrument is performance checked using a certified Corundum standard (NIST 1976). The software used for data collection was Diffrac Plus XRD Commander v2.5.0 and the data were analysed and presented using Diffrac Plus EVA v11.0.0.2 or v13.0.0.2. Samples were run under ambient conditions as flat plate specimens using powder as received. The sample was gently packed into a cavity cut into a polished, zero-background (510) silicon wafer. The sample was rotated via its own plane during analysis. The details of the data collection are: • Angular range: 2 to 42 02θ • Step size: 0.05 02θ • Collection time: 0.5 s/step

For C=CC(=O)N[C@@H]1CCCN(Cc2ccnc(C(=O)Nc3ccc(-c4cc5c(N6CCOCC6)ncnc5[nH]4)cc3)c2)C1 [Form K, N-[4-[4-(4-morpholinyl)-7H-pyrrolo[2,3-d]pyrimidin-6-yl]phenyl]-4-[[3(R)-[(1-oxo-2-propen-1-yl)amino]-1-piperidinyl]methyl]-2-pyridinecarboxamide], the “observed hygroscopicity and absorption of water” value [1] was “about 2.1%”, the solubility (physchem) was roughly 4 µg/mL (≈ 7.06 µM) and the solubility [2] was less than 35 µg/mL. For the same compound, the “XRPD pattern post storage” value ([3]; closed container at 60° C. and 75% RH for at least a week) was “substantially the same X-ray powder diffraction (XRPD) pattern”, the “XRPD pattern post storage” value ([3]; open container at 25° C. and 92% RH for at least a week) was “substantially the same X-ray powder diffraction (XRPD) pattern” and the “XRPD pattern post storage” value ([3]; open container at 40° C. and 75% RH for at least a week) was “substantially the same X-ray powder diffraction (XRPD) pattern”. The Stability ([3]; polymorph stability, K converted into Pattern D in MeOH/water mixture (water activity from 0 to 1), listed as K) was “Low-Converted into” and the “Stability (thermal)” value ([3]; thermal) was “But thermally very stable”.
